“And” between values parts separate entries of the source, which are not always exact repeats. Equal entries are not always repeated. Values belong to the compound of their own block, whether it stands above or below them.
Tests used:
[1] = target: T1, wt IDH1 (Homo sapiens, UniProt O75874); assay: Absorbance assay: effect of metal ions on catalysis and inhibition of wt IDH1; type: biochemical; details: for inhibition by metal ion: wt IDH1, metal ions 10 mM in the presence of 10 mM Mg^2+
T1 construct: made in house; host or cells: Escherichia coli BL21(DE3) pLyS
T1 sequence (O75874 2-414): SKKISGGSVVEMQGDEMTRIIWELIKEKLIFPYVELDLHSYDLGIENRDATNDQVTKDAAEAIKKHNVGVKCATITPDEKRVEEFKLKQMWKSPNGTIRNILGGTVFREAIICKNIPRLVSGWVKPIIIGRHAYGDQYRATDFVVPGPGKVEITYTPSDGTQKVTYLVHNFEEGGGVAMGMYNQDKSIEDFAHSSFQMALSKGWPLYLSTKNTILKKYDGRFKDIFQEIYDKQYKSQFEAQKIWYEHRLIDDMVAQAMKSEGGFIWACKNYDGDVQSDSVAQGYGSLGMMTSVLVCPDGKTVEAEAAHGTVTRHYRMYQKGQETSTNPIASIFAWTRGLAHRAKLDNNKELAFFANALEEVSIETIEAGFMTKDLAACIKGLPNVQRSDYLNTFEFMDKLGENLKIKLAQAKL

[2] = target: T1, wt IDH1; assay: Non-denaturing protein MS, wt IDH1; type: binding; details: wt IDH1 dimer with two NADPHs bound
Experimental: Non-denaturing mass spectra were obtained using a quadrupole time-of-flight mass spectrometer (Synapt HD MS, Waters, Wilmslow, Manchester, UK)[71],[72]. […] Protein concentrations were measured using a Nanodrop spectrometer (Thermo Scientific™ NanoDrop™ One). […] The solution was then sprayed through a nozzle in a Nanomate chip at a spray voltage of 1.8–2.0 kV (spray backing gas pressure 0.8–1.0 psi, inlet pressure 3.8 mbar). […] For promoting collision-induced dissociation of the substrate from its complex with IDH1, a higher cone voltage (200 V) was used. The rest of the voltages and pressures in the mass spectrometer were adjusted for the best resolution and minimum fragmentation. Data collection and analysis were carried out using the Waters MassLynx software. Mass spectra were calibrated externally using the CsI solution to produce CsI cluster ions.

[3] = target: T1, wt IDH1; assay: CPMG-edited 1H NMR ligand binding, wt IDH1; details: for weakening of D-isocitrate binding to wt IDH1: with Mg^2+ or Ca^2+ (10 mM); for displacement of D-isocitrate from wt IDH1 / binding to wt IDH1: without metal ions; for displacement of D-isocitrate from wt IDH1: inhibitor 50 µM, D-isocitrate 50 µM, wt IDH1 6.25 µM; for binding to wt IDH1: DSF and NMR
Experimental: Additional solvent presaturation was applied for 2 s. The assay mixture contains 160 µL of a 50 µM solution of the compound of interest ± 10 mM metal chloride salts in 50 mM Tris-D11-HCl in 90% H2O/10% D2O at pH 7.5. […] Data were processed with the TopSpin 3.1 software.

[4] = target: T1, wt IDH1; assay: Absorbance assay: kinetics of reductive reaction (2OG to isocitrate) by wt IDH1; type: biochemical
Experimental: (§1) All experiments were performed in (at least) triplicate.
(§2) KM values were determined by varying concentrations of the substrate/cofactor under investigation while maintaining the concentrations of other components using standard conditions. […] Graphs were fitted using GraphPad Prism to obtain kinetic parameters.

[5] = target: T1, wt IDH1; assay: Absorbance assay (NADPH, 340 nm): kinetics of oxidative reaction (isocitrate to 2OG) by wt IDH1; type: biochemical
Experimental: as §1, §2

[6] = target: T1, wt IDH1; assay: Differential scanning fluorimetry (DSF) thermal shift, wt IDH1; type: binding; details: 50 mM Tris-HCl, pH 7.5; for thermal stabilisation by cosubstrates: wt IDH1, 0.125—4 mM; for thermal stabilisation (shift in Tm): wt IDH1, divalent metal ions (5 mM)
Experimental: Thermal shift experiments were carried out using Sypro Orange dye and a CFX96 Touch^TM Real-Time PCR Detection System (Bio-Rad)[69]. […] The standard assay buffer contains 50 mM Tris-HCl at pH 7.5. Various concentrations of substrates were mixed with IDH1 for thermal stabilisation studies. […] Bio-Rad CFX Manager was used to determine the melting temperature, Tm.

[7] = target: T1, wt IDH1; assay: 1H NMR reaction monitoring, wt IDH1; type: biochemical; details: 1H NMR (700 MHz), NADP+, 10 mM MgCl2
[8] = wt IDH1, reductive reaction (2OG to isocitrate) with Mg^2+, 100 mM NaHCO3
[9] = wt IDH1, oxidative reaction with Mn^2+ (10 mM MnCl2)

Compound: [Cl-].[Cl-].[Co+2] [Co^2+, CoCl2]
inhibition by metal ion [1]: inhibitory

inhibition by metal ion [1]: no effect
Compound: [Cl-].[K+] [K^+]

binding stoichiometry [2]: two inhibitors per IDH1 dimer
weakening of D-isocitrate binding to wt IDH1 [3]: not
displacement of D-isocitrate from wt IDH1 [3]: partially displaced
Compound: COc1c(C)cc(NC(=O)c2nn(Cc3ccc(F)cc3)c3c2CN(C(=O)c2ccc[nH]2)C[C@]3(C)C(N)=O)cc1C [GSK864]

Km [4, 8]: 1100 µM
Vmax [4, 8]: 200 ± 16 nM/s
binding to wt IDH1 [3]: bind weakly
Compound: O=C(O)CCC(=O)C(=O)O [2OG, 2-oxoglutarate]
Velocity ([4]; Fig. S2e, [2OG] 312.5 μM): 0.04369 µM/s and 0.04159 µM/s and 0.04334 µM/s
Velocity ([4]; Fig. S2e, [2OG] 625 μM): 0.08493 µM/s and 0.08598 µM/s and 0.07405 µM/s
Velocity ([4]; Fig. S2e, [2OG] 2500 μM): 0.1446 µM/s and 0.1407 µM/s and 0.1265 µM/s
Velocity ([4]; Fig. S2e, [2OG] 5000 μM): 0.1734 µM/s and 0.1435 µM/s and 0.1563 µM/s
Velocity ([4]; Fig. S2e, [2OG] 10000 μM): 0.2051 µM/s and 0.2078 µM/s and 0.1434 µM/s

binding stoichiometry [2]: one inhibitor per IDH1 dimer
weakening of D-isocitrate binding to wt IDH1 [3]: not
displacement of D-isocitrate from wt IDH1 [3]: partially displaced
Compound: N#Cc1ccnc(N2C(=O)CC[C@H]2C(=O)N(c2cncc(F)c2)[C@H](C(=O)NC2CC(F)(F)C2)c2ccccc2Cl)c1 [AG-120, Ivosidenib]

inhibition by metal ion [1]: no effect
Compound: [Cl-].[Li+] [Li^+]

Compound: O=C(O)CC(C(=O)O)C(O)C(=O)O (racemic) [DL-isocitrate]
Km ([5]; wt IDH1, oxidative reaction with Mg^2+ (10 mM MgCl2)): 38 ± 6 µM
Km [5, 9]: 35 ± 4 µM

thermal stabilisation by cosubstrates [6]: stabilise
Velocity ([5]; Fig. S3b, MnCl2 as metal, [NADP+] 300 μM): 0.3651 µM/s
Compound: NC(=O)c1ccc[n+](C2OC(COP(=O)(O)OP(=O)([O-])OCC3OC(n4cnc5c(N)ncnc54)C(OP(=O)(O)O)C3O)C(O)C2O)c1 (stereo not shown) [NADP^+]
Velocity ([5]; Fig. S2b, [NADP+] 9.375 μM): 0.05756 µM/s and 0.05177 µM/s and 0.06247 µM/s
Velocity ([5]; Fig. S2b, [NADP+] 18.75 μM): 0.1158 µM/s and 0.09809 µM/s and 0.09195 µM/s
Velocity ([5]; Fig. S2b, [NADP+] 37.5 μM): 0.1572 µM/s and 0.1441 µM/s and 0.152 µM/s
Velocity ([5]; Fig. S2b, [NADP+] 75 μM): 0.1869 µM/s and 0.1658 µM/s and 0.2058 µM/s
Velocity ([5]; Fig. S2b, [NADP+] 150 μM): 0.2085 µM/s and 0.1992 µM/s and 0.219 µM/s
Velocity ([5]; Fig. S2b, [NADP+] 300 μM): 0.2511 µM/s and 0.2272 µM/s and 0.239 µM/s
Velocity ([5]; Fig. S2b, [NADP+] 600 μM): 0.245 µM/s and 0.2229 µM/s and 0.192 µM/s
Velocity ([5]; Fig. S2b, [NADP+] 1200 μM): 0.2522 µM/s and 0.2318 µM/s and 0.2402 µM/s
Velocity ([5]; Fig. S2b, [NADP+] 2400 μM): 0.2325 µM/s and 0.2464 µM/s and 0.2378 µM/s
Velocity ([5]; Fig. S3b, MnCl2 as metal, [NADP+] 2.34375 μM): 0.01474 µM/s and 0.01079 µM/s and 0.008423 µM/s
Velocity ([5]; Fig. S3b, MnCl2 as metal, [NADP+] 4.6875 μM): 0.04185 µM/s and 0.03843 µM/s and 0.02737 µM/s
Velocity ([5]; Fig. S3b, MnCl2 as metal, [NADP+] 9.375 μM): 0.08765 µM/s and 0.07107 µM/s and 0.0637 µM/s
Velocity ([5]; Fig. S3b, MnCl2 as metal, [NADP+] 18.75 μM): 0.1629 µM/s and 0.1316 µM/s and 0.1234 µM/s
Velocity ([5]; Fig. S3b, MnCl2 as metal, [NADP+] 37.5 μM): 0.2419 µM/s and 0.1971 µM/s and 0.1732 µM/s
Velocity ([5]; Fig. S3b, MnCl2 as metal, [NADP+] 75 μM): 0.3032 µM/s and 0.278 µM/s and 0.2851 µM/s
Velocity ([5]; Fig. S3b, MnCl2 as metal, [NADP+] 150 μM): 0.3353 µM/s and 0.3245 µM/s and 0.3419 µM/s

Velocity ([4]; Fig. S2f, [NADPH] 500 μM): 0.1648 µM/s and 0.2053 µM/s
thermal stabilisation by cosubstrates [6]: stabilise
Compound: NC(=O)C1=CN([C@@H]2O[C@H](COP(=O)(O)OP(=O)(O)OC[C@H]3O[C@@H](n4cnc5c(N)ncnc54)[C@H](OP(=O)(O)O)[C@@H]3O)[C@@H](O)[C@H]2O)C=CC1 [NADPH]
Velocity ([4]; Fig. S2f, [NADPH] 31.25 μM): 0.06247 µM/s and 0.06738 µM/s and 0.04685 µM/s
Velocity ([4]; Fig. S2f, [NADPH] 62.5 μM): 0.08774 µM/s and 0.07774 µM/s and 0.04633 µM/s
Velocity ([4]; Fig. S2f, [NADPH] 250 μM): 0.1446 µM/s and 0.1585 µM/s and 0.1383 µM/s

inhibition by metal ion [1]: no effect
Compound: [Cl-].[Cs+] [Cs^+]

Compound: [Ba+2].[Cl-].[Cl-] [Ba^2+, BaCl2]
inhibition by metal ion [1]: inhibiting

inhibition by metal ion [1]: no effect
Compound: [Na+] [Na^+]

Compound: O=C(O)C[C@H](C(=O)O)[C@@H](O)C(=O)O [L-isocitrate]
conversion by wt IDH1 [7]: neither a substrate nor an inhibitor

thermal stabilisation (shift in Tm) [6]: 3.2 °C
inhibition by metal ion [1]: inhibiting
Compound: [Ca+2].[Cl-].[Cl-] [Ca^2+, CaCl2]

binding to wt IDH1 [3]: bind weakly
Compound: O=C(O)CNC(=O)C(=O)O [NOG, N-oxalylglycine]

binding to wt IDH1 [3]: not observed to bind
Compound: O=C(O)CCC(O)C(=O)O (stereo not shown) [2HG, 2-hydroxyglutarate]

inhibition by metal ion [1]: inhibiting
Compound: [Cl-].[Cl-].[Sr+2] [Sr^2+, SrCl2]

Compound: [Cl][Ni][Cl] [Ni^2+, NiCl2]
inhibition by metal ion [1]: inhibitory

Compound: [Cl][Cd][Cl] [Cd^2+, CdCl2]
inhibition by metal ion [1]: inhibitory

thermal stabilisation (shift in Tm) [6]: 2.9 °C
effect of metal ion on catalysis ([1]; wt IDH1, metal ions 10 mM): promoted
Velocity ([5]; Fig. S3c, [MnCl2] 12.207 μM): 0.3785 µM/s and 0.3498 µM/s
Velocity ([5]; Fig. S3c, [MnCl2] 19.5312 μM): 0.3561 µM/s and 0.3846 µM/s
kcat ([5]; wt IDH1, oxidative reaction with Mn^2+): 81 ± 11 s⁻¹
Km [5, 9]: 2 ± 0.3 µM
Vmax [5, 9]: 416 ± 13 nM/s
Compound: [Cl][Mn][Cl] [MnCl2]
Velocity ([5]; Fig. S3c, [MnCl2] 1.16415 μM): 0.08423 µM/s and 0.08186 µM/s and 0.1169 µM/s
Velocity ([5]; Fig. S3c, [MnCl2] 1.86265 μM): 0.2269 µM/s and 0.1979 µM/s and 0.204 µM/s
Velocity ([5]; Fig. S3c, [MnCl2] 4.76837 μM): 0.3206 µM/s and 0.2772 µM/s and 0.338 µM/s
Velocity ([5]; Fig. S3c, [MnCl2] 7.62939 μM): 0.3506 µM/s and 0.2861 µM/s and 0.3632 µM/s
Velocity ([5]; Fig. S3c, [MnCl2] 31.25 μM): 0.3922 µM/s and 0.3424 µM/s and 0.3875 µM/s
Velocity ([5]; Fig. S3c, [MnCl2] 50 μM): 0.4096 µM/s and 0.3893 µM/s and 0.3938 µM/s

inhibition by metal ion [1]: inhibitory
Compound: [Cl-].[Cl-].[Zn+2] [Zn^2+, ZnCl2]
